Measurements published in patent publication US6951855B2, “Benzoxazinone derivatives for use in the treatment of angiogenesis” (AstraZeneca AB, priority 2001, dated 2005).

| Compound | melting point [°C] |
| --- | --- |
| O=C1COc2cc(Oc3ccc(O)cc3)ccc2N1 [Example 2, 7-(4-Hydroxyphenoxy)-2H-1,4-benzoxazin-3(4H)-one] | 250 to 251 |
| Nc1cccc(Sc2ccc3c(c2)OCC(=O)N3)c1 [Example 5, 7-[(3-Aminophenyl)sulfanyl]-2H-1,4-benzoxazine-3(4H)-one] | 181 to 182 |
| O=C1COc2cc(Sc3ccc(O)cc3)ccc2N1 [Example 6, 7-[(4-Hydroxyphenyl)sulfanyl]-2H-1,4-benzoxazin-3(4H)-one] | 224 to 225 |
| COc1ccc(Sc2ccc3c(c2)OCC(=O)N3)cc1OC [Example 7, 7-[(3,4-Dimethoxyphenyl)sulfanyl]-2H-1,4-benzoxazin-3(4H)-one] | 170 to 171 |
| O=C1COc2cc(SCc3ccccc3)ccc2N1 [Example 9, 7-Benzylsulfanyl-2H-1,4-benzoxazin-3(4H)-one] | 154 to 155 |
| O=C1COc2cc(Nc3ccc(O)cc3)ccc2N1 [Example 15, 7-(4-Hydroxyanilino)-2H-1,4-benzoxazin-3(4H)-one] | 270 to 275 |
| Nc1cccc(Oc2ccc3c(c2)OCC(=O)N3)c1 [Example 17, 7-(3-Aminophenoxy)-2H-1,4-benzoxazin-3(4H)-one] | 209 to 210 |
| CC(=O)Nc1ccc(Oc2ccc3c(c2)OCC(=O)N3)cc1 [Example 19, 7-(4-Acetylaminophenoxy)-2H-1,4-benzoxazin-3(4H)-one] | 230 to 232 |

More lines, now with the values ahead:

| melting point [°C] | Compound |
| --- | --- |
| 163 to 164 | COc1ccc(Oc2ccc3c(c2)OCC(=O)N3)cc1 [Example 1, 7-(4-Methoxyphenoxy)-2H-1,4-benzoxazin-3(4H)-one] |
| 232 to 234 | Nc1ccc(Sc2ccc3c(c2)OCC(=O)N3)cc1 [Example 3, 7-[(4-Aminophenyl)sulfanyl]-2H-1,4-benzoxazin-3(4H)-one] |
| 204 to 205 | Nc1ccccc1Sc1ccc2c(c1)OCC(=O)N2 [Example 4, 7-[(2-Aminophenyl)sulfanyl]-2H-1,4-benzoxazin-3(4H)-one] |
| 236 to 238 | O=C1COc2cc(Sc3ccc(O)c(O)c3)ccc2N1 [Example 8, 7-[(3,4-Dihydroxyphenyl)sulfanyl]-2H-1,4-benzoxazin-3(4H)-one] |
| 207 to 209 | O=C1COc2cc(SCc3ccc(O)cc3)ccc2N1 [Example 13, 7-(4-Hydroxybenzylsulfanyl)-2H-1,4-benzoxazin-3(4H)-one] |
| 174 to 175 | COc1ccc(Nc2ccc3c(c2)OCC(=O)N3)cc1 [Example 14, 7-(4-Methoxyanilino)-2H-1,4-benzoxazin-3(4H)-one] |
| 149 to 150 | Nc1ccccc1Oc1ccc2c(c1)OCC(=O)N2 [Example 18, 7-(2-Aminophenoxy)-2H-1,4-benzoxazin-3(4H)-one] |
